For one assay, the system named is SR. As to the kind of experiment: cells. Details: species or system NCI human tumour cell line panel; NCI one-dose anti-proliferative screen, human tumour cell line panel, growth inhibition percent (GI%). The note with it: Homo sapiens, SR; growth inhibition (GI%), single dose. Here is the method: (§1) Ten of the newly synthesised 1,2,3-triazolo benzenesulfonamide derivatives were selected by NCI (Bethesda, MD) for evaluating their anti-proliferative activity. The selected compounds were subjected to a primary in vitro one-dose ([…]) anti-proliferative assay against 57 human tumour cell lines following the previously reported method[30] and their obtained growth inhibition percent (GI%) are presented in Table 2. A subset of ten triazolo-benzenesulfonamides (3, 5, 6, 7, 9, 11, 16–18, and 20) were selected and subjected to an in vitro anti-proliferative screening against a panel of 57 cancer cell lines at NCI at an initial high dose ([…]). The human cell lines used were derived from nine cancer types: leukaemia, lung, colon, CNS, melanoma, ovarian, renal, prostate and breast cancers.

The subject of the next assay is EKVX. As to the kind of experiment: cells. Also on record: species or system NCI human tumour cell line panel; NCI one-dose anti-proliferative screen, human tumour cell line panel, growth inhibition percent (GI%). To be noted: Homo sapiens, EKVX; growth inhibition (GI%), single dose. Here is the method: as §1
The next assay concerns M14. Kind of assay: cells. The note with it: Homo sapiens, M14; growth inhibition (GI%), single dose. Also on record: species or system NCI human tumour cell line panel; NCI one-dose anti-proliferative screen, human tumour cell line panel, growth inhibition percent (GI%). The procedure:
as §1

The test system of the next assay is ACHN. Kind of assay: cells. Also on record: species or system NCI human tumour cell line panel; NCI one-dose anti-proliferative screen, human tumour cell line panel, growth inhibition percent (GI%). To be noted: Homo sapiens, ACHN; growth inhibition (GI%), single dose. The procedure:
as §1

Another assay deals with HL-60(TB). As to the kind of experiment: cells. Details: species or system NCI human tumour cell line panel; NCI one-dose anti-proliferative screen, human tumour cell line panel, growth inhibition percent (GI%). The note with it: Homo sapiens, HL-60; growth inhibition (GI%), single dose. The procedure: as §1
The subject of the next assay is SF-539. Kind of assay: cells. Details: species or system NCI human tumour cell line panel; NCI one-dose anti-proliferative screen, human tumour cell line panel, growth inhibition percent (GI%). To be noted: Homo sapiens, SF-539; growth inhibition (GI%), single dose. The procedure:
as §1

The next assay relates to SNB-19. As to the kind of experiment: cells. Also on record: species or system NCI human tumour cell line panel; NCI one-dose anti-proliferative screen, human tumour cell line panel, growth inhibition percent (GI%). To be noted: Homo sapiens, SNB-19; growth inhibition (GI%), single dose. The procedure:
as §1

Another assay deals with UO-31. As to the kind of experiment: cells. Also on record: species or system NCI human tumour cell line panel; NCI one-dose anti-proliferative screen, human tumour cell line panel, growth inhibition percent (GI%). To be noted: Homo sapiens, UO-31; growth inhibition (GI%), single dose. The procedure:
as §1

A further assay deals with RPMI-8226. As to the kind of experiment: cells. The note with it: Homo sapiens, RPMI-8226; growth inhibition (GI%), single dose. Details: species or system NCI human tumour cell line panel; NCI one-dose anti-proliferative screen, human tumour cell line panel, growth inhibition percent (GI%). The procedure: as §1
Another assay concerns SN12C. Kind of assay: cells. To be noted: Homo sapiens, SN12C; growth inhibition (GI%), single dose. Also on record: species or system NCI human tumour cell line panel; NCI one-dose anti-proliferative screen, human tumour cell line panel, growth inhibition percent (GI%). The procedure: as §1
Another assay concerns A498. As to the kind of experiment: cells. Also on record: species or system NCI human tumour cell line panel; NCI one-dose anti-proliferative screen, human tumour cell line panel, growth inhibition percent (GI%). The note with it: Homo sapiens, A498; growth inhibition (GI%), single dose. Here is the method:
as §1

For the next assay, the system named is HOP-62. As to the kind of experiment: cells. Also on record: species or system NCI human tumour cell line panel; NCI one-dose anti-proliferative screen, human tumour cell line panel, growth inhibition percent (GI%). To be noted: Homo sapiens, HOP-62; growth inhibition (GI%), single dose. The procedure: as §1
The next assay has as its system SW-620. Kind of assay: cells. Also on record: species or system NCI human tumour cell line panel; NCI one-dose anti-proliferative screen, human tumour cell line panel, growth inhibition percent (GI%). To be noted: Homo sapiens, SW-620; growth inhibition (GI%), single dose. The procedure: as §1
The next assay relates to LOX IMVI. Kind of assay: cells. Details: species or system NCI human tumour cell line panel; NCI one-dose anti-proliferative screen, human tumour cell line panel, growth inhibition percent (GI%). The note with it: Homo sapiens, LOX IMVI; growth inhibition (GI%), single dose. Here is the method:
as §1

For another assay, the system named is MALME-3M. Kind of assay: cells. Also on record: species or system NCI human tumour cell line panel; NCI one-dose anti-proliferative screen, human tumour cell line panel, growth inhibition percent (GI%). The note with it: Homo sapiens, Malme-3M; growth inhibition (GI%), single dose. The procedure: as §1
A further assay relates to MDA-MB-468. Kind of assay: cells. Details: species or system NCI human tumour cell line panel; NCI one-dose anti-proliferative screen, human tumour cell line panel, growth inhibition percent (GI%). The note with it: Homo sapiens, MDA-MB-468; growth inhibition (GI%), single dose. The procedure:
as §1

The next assay relates to BT-549. Kind of assay: cells. Details: species or system NCI human tumour cell line panel; NCI one-dose anti-proliferative screen, human tumour cell line panel, growth inhibition percent (GI%). To be noted: Homo sapiens, BT-549; growth inhibition (GI%), single dose. The procedure:
as §1

Another assay concerns the target T1, hCA IX (Homo sapiens, UniProt Q16790).
T1 construct: gene CA9; recombinant, obtained in-house as reported earlier
As to the kind of experiment: stopped-flow CO2 hydrase assay. It is filed as biochemical. An excerpt: stopped-flow CO2 hydrase assay on hCA IX

The next assay deals with T2, hCA I (Homo sapiens, UniProt P00915).
T2 construct: gene CA1; recombinant, obtained in-house as reported earlier; cytosolic
Kind of assay: stopped-flow CO2 hydrase assay. It is filed as biochemical. An excerpt:
stopped-flow CO2 hydrase assay on hCA I

For another assay, the target named is T3, hCA II (Homo sapiens, UniProt P00918).
T3 construct: gene CA2; recombinant, obtained in-house as reported earlier; cytosolic
As to the kind of experiment: stopped-flow CO2 hydrase assay. It is filed as biochemical. From the text:
stopped-flow CO2 hydrase assay on hCA II

The target in another assay is T4, hCA IV (Homo sapiens, UniProt P22748).
T4 construct: gene CA4; recombinant, obtained in-house as reported earlier
As to the kind of experiment: stopped-flow CO2 hydrase assay. It is filed as biochemical. From the text:
stopped-flow CO2 hydrase assay on hCA IV

One may read the inhibition as the change of the read-out against control, counted positive when it falls. A low value points to a weak effect. For orientation: Ki means a measure of affinity in units of concentration, obtained from inhibition or displacement. Low values mean a stronger hold on the target, high ones a looser hold on the target.

T4 sequence (P22748 19-284): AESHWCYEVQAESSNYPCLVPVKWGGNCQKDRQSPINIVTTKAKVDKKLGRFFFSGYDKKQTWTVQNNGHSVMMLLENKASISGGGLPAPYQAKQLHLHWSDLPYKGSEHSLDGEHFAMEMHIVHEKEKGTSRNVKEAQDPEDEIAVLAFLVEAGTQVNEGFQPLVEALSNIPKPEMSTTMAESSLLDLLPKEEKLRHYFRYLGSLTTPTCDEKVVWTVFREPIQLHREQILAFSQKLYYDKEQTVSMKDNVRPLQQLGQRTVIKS
T2 sequence (P00915 2-261): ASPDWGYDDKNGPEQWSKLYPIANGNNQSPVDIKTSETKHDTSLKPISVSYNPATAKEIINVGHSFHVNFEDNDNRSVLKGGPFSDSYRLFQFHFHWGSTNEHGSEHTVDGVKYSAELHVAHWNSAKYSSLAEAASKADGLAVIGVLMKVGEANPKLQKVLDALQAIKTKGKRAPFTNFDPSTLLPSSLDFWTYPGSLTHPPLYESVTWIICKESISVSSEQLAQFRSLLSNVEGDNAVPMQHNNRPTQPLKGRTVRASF

Consider `N#Cc1nnn(-c2ccc(S(N)(=O)=O)cc2)c1N` [compound 3, 3], for which the inhibition at 10 µM in the assay on SR worked out at 3.5%; in the assay on EKVX, 8.7%; in the assay with M14, 2.7%; in the assay with ACHN, 1.3%; with HL-60(TB), 6.5%; with SF-539, 1.9%. In addition, the inhibition at 10 µM in the assay with SNB-19 worked out at 2.9%; with UO-31 it was 14.5%; in the assay with RPMI-8226, 8.5%; in the assay with SN12C it was 1.1%; in the assay with A498, 13.6%; in the assay with HOP-62, 8%. For the same molecule, the results for the inhibition at 10 µM in the assay with SW-620 and in the assay with LOX IMVI were 5.1% and 6.1%, respectively.

On to `N#Cc1nnn(-c2ccc(S(N)(=O)=O)cc2)c1NCC(=O)c1ccccc1` [compound 7, 7], for which the inhibition at 10 µM in the assay with SR worked out at 9.3%; with EKVX it was 9.2%; with MALME-3M, 3.6%; in the assay on M14, 2.6%; in the assay with ACHN, 0.6%; in the assay on HL-60(TB) it was 11.6%. Also, the inhibition at 10 µM in the assay with SNB-19 turned out to be 7.8%; in the assay on MDA-MB-468, 3.3%; in the assay with UO-31, 21.1%; in the assay with RPMI-8226, 12.5%; in the assay on SN12C it was 2.9%; in the assay with BT-549, 2%. Moreover, the inhibition at 10 µM with HOP-62 was 8.3%; with SW-620, 2.8%; with LOX IMVI it was 5.9%.

As to `N#Cc1nnn(-c2ccc(S(N)(=O)=O)cc2)c1/N=C/c1ccc(Cl)cc1` [compound 9, 9], the inhibition at 10 µM in the assay with SR was 15.8%; with EKVX, 4.2%; in the assay with HL-60(TB), 12.6%; in the assay with UO-31, 0.3%; with RPMI-8226, 12.3%; with A498, 8.6%. In addition, the inhibition at 10 µM in the assay on BT-549 was 11.3%; in the assay on HOP-62 it was 0.1%.

Turning to `N#Cc1nnn(-c2ccc(S(N)(=O)=O)cc2)c1NS(=O)(=O)c1ccccc1` [compound 11, N-(4-cyano-1-(4-sulfamoylphenyl)-1H-1,2,3-triazol-5-yl)benzenesulfonamide], the Ki at hCA IX was 144 nM; at hCA I, 5550 nM; at hCA II it was 356 nM; on hCA IV it was 4520 nM. The inhibition at 10 µM in the assay on SR was 9.2%; with EKVX it was 2%; in the assay with MALME-3M, 1.2%; in the assay with M14, 3.3%; in the assay with HL-60(TB), 10.7%; with SF-539, 3.2%. Moreover, the inhibition at 10 µM with SNB-19 turned out to be 2.8%; in the assay on UO-31, 13.4%; in the assay with RPMI-8226, 7.1%; with SN12C it was 1.6%; in the assay on HOP-62, 4.2%; in the assay with SW-620 it was 2.3%.

Turning to `N#Cc1c(-c2ccc(Cl)cc2)nc2c(nnn2-c2ccc(S(N)(=O)=O)cc2)c1N` [compound 16, 4-(7-amino-5-(4-chlorophenyl)-6-cyano-3H-[1,2,3]triazolo[4,5-b]pyridin-3-yl)benzenesulfonamide], the Ki was 42.6 nM on hCA IX, 605 nM on hCA I, 169 nM at hCA II and 788 nM at hCA IV. For the same molecule, the inhibition at 10 µM with SR was 16.8%; in the assay with EKVX it was 39.5%; with HL-60(TB) it was 5.5%; with SNB-19, 3.4%; with UO-31 it was 25%; in the assay on RPMI-8226 it was 8.4%. For the same molecule, the inhibition at 10 µM in the assay with SN12C is 8.9%; with A498, 17.6%; with HOP-62, 7.3%; in the assay with LOX IMVI, 20.4%.

Turning to `Nc1nc(=S)[nH]c2c1nnn2-c1ccc(S(N)(=O)=O)cc1` [compound 18, 4-(7-amino-5-thioxo-4,5-dihydro-3H-[1,2,3]triazolo[4,5-d]pyrimidin-3-yl)benzenesulfonamide], the Ki at hCA IX was 272 nM; on hCA I it was 955 nM; on hCA II, 732 nM; on hCA IV, 489 nM. The inhibition at 10 µM is 1.7% in the assay with SR; 3.7% in the assay with EKVX; 26.1% in the assay on HL-60(TB); 1.7% in the assay with SNB-19; 3.5% with MDA-MB-468; 13.8% in the assay on UO-31. In addition, the inhibition at 10 µM in the assay on RPMI-8226 came out at 12.3%; in the assay on SN12C, 1.2%; in the assay on A498 it was 5.5%; in the assay on HOP-62, 4.8%; in the assay on SW-620, 4.3%; in the assay on LOX IMVI it was 7.5%.

Regarding `CCn1c(=S)[nH]c2c(nnn2-c2ccc(S(N)(=O)=O)cc2)c1=N` [compound 20, 4-(6-ethyl-7-imino-5-thioxo-4,5,6,7-tetrahydro-3H-[1,2,3]triazolo[4,5-d]pyrimidin-3-yl)benzenesulfonamide], the Ki at hCA IX was 242 nM; on hCA I, 909 nM; at hCA II it was 930 nM; on hCA IV, 875 nM. In addition, the inhibition at 10 µM is 7.5% in the assay on SR; 3.1% with EKVX; 8.9% in the assay with HL-60(TB); 1.9% in the assay with SNB-19; 7.3% in the assay with UO-31; 12.1% in the assay with RPMI-8226. The inhibition at 10 µM in the assay on SN12C is 0.9%; in the assay with A498, 6.2%; in the assay on LOX IMVI, 4.6%.
